Laboratory results: patent publication US20160015033A1, “COMPOUNDS DERIVED FROM HERBICIDAL CARBOXYLIC ACIDS AND TETRAALKYLAMMONIUM OR (ARYLALKYL)TRIALKYLAMMONIUM HYDROXIDES” (DOW AGROSCIENCES LLC, priority 2014, published 2016)

Tests used:
Kochia Kochia scoparia = assay: Post-emergence greenhouse herbicide evaluation, Kochia; type: in vivo; settings: 560 g ae/ha, 14 days after application, visual injury 0 to 100% vs untreated control
Source text: (§1) A peat based potting soil, Metro-mix 360, was used as the soil media for this test. Metro-mix is a growing medium consisting of 35 to 45% specially processed Coconut Coir Pith, 10 to 20% horticultural grade vermiculite, 15 to 25% processed Ash Bark, 20 to 30% choice Canadian Sphagnum Peat Moss and proprietary nutrients and other ingredients. Several seeds of each species were to planted in 10 cm square pots and top watered twice daily. Plant material was propagated in the greenhouse at a constant temperature of 26 to 28° C. and 50 to 60% relative humidity. Natural light was supplemented with 1000-watt metal halide overhead lamps with an average illumination of 500 μE m^−2 s^−1 photosynthetic active radiation (PAR). Day length was 16 hours. Plant material was top-watered prior to treatment and sub-irrigated after treatment. […] The growth stage of the various weed species ranged from 2 to 4 leaf. Treatments were replicated 3 times. Plants were returned to the greenhouse after treatment and sub-watered throughout the duration of the to experiment. Plant material was fertilized twice weekly with Hoagland's fertilizer solution. Percent visual injury assessments were made on a scale of 0 to 100% as compared to the untreated control plants (where 0 is equal to no injury and 100 is equal to complete death of the plant).

[1] = tested on: grapes (Vitis labrusca L.); assay: Volatility evaluation: injury to grapes from vapor exposure; settings: wheat sprayed at 11200 g ae/ha, 24 hour vapor exposure at 40° C., evaluated 7 days after exposure
Source text: Four pots of wheat (Triticum aestivum L.) grown in 4 inch square pots were sprayed at 11200 g ae/ha with each of the different forms of 2,4-D. Treatments were applied with a tracksprayer manufactured by Allen Machine Works. The sprayer utilized an 8002E spray nozzle, spray pressure of 262 kPa pressure and speed of 1.5 mph (2.4 km/h) to deliver 187 L/Ha. The nozzle height was 46 cm above the plant canopy. The growth stage of the wheat was 1 to 2 leaf. The wheat plants were allowed to thoroughly dry to ensure that none of the spray solution was present when they were moved into a clean pot flat. A known sensitive species, grapes (Vitis labrusca L.) were placed at the opposite end of the flat. All of the pots were covered with a humidome with small ½ inch (1.27 cm) diameter holes cut into the end where the wheat was placed and a small box fan powered with a battery in the other end to pull air across the treated wheat plants and over the top of grapes. Plants were placed into a growth chamber with the temperature set at 40° C. with a 14 hour day and a 10 hour night cycle. A 24 hour exposure period was used after which the sensitive plants were then removed and placed in the greenhouse and evaluated for injury from vapor exposure to the treatments.

[2] = tested on: Broadleaf Dock Rumex obtusifolia; assay: Post-emergence greenhouse herbicide evaluation, Broadleaf Dock; type: in vivo; settings: 560 g ae/ha, 14 days after application, visual injury 0 to 100% vs untreated control
Source text: as §1

For `CC[N+](CC)(CC)CC.O=C([O-])COc1ccc(Cl)cc1Cl` [Compound 1b], the “% Control Kochia Kochia scoparia” value (Kochia Kochia scoparia) was 89%, the “% Injury to grapes from vapor exposure” value [1] was 0% and the “% Control Broadleaf Dock Rumex obtusifolia” value [2] was 79%.
In the case of `C[N+](C)(C)C.O=C([O-])COc1nc(Cl)c(Cl)cc1Cl` [Compound 2a], the “% Control Kochia Kochia scoparia” value (Kochia Kochia scoparia) is reported as 79% and the “% Control Broadleaf Dock Rumex obtusifolia” value [2] is reported as 85%.
For `C[N+](C)(C)C.O=C([O-])COc1ccc(Cl)cc1Cl` [Compound 1a], the “% Control Kochia Kochia scoparia” value (Kochia Kochia scoparia) was 83% and the “% Control Broadleaf Dock Rumex obtusifolia” value [2] was 77%.
With `CCCCOCCOC(=O)COc1ccc(Cl)cc1Cl` [2,-4-D butoxyethylester (BEE), 2,-4-D butoxyethylester] the “% Injury to grapes from vapor exposure” value [1] was 100%.
With `CNC.O=C(O)COc1ccc(Cl)cc1Cl` [2,4-D dimethylamine (DMA), 2,4-D dimethylamine, reference compound] the “% Control Kochia Kochia scoparia” value (Kochia Kochia scoparia) was 86%, the “% Injury to grapes from vapor exposure” value [1] was 78% and the “% Control Broadleaf Dock Rumex obtusifolia” value [2] was 77%.
In the case of `CCC[N+](CCC)(CCC)CCC.O=C([O-])COc1ccc(Cl)cc1Cl` [Compound 1c], the “% Control Kochia Kochia scoparia” value (Kochia Kochia scoparia) is reported as 83% and the “% Control Broadleaf Dock Rumex obtusifolia” value [2] is reported as 73%.
For Dicamba DMA, the “% Injury to grapes from vapor exposure” value [1] was 70%.
`CC[N+](CC)(CC)CC.O=C([O-])COc1nc(Cl)c(Cl)cc1Cl` [Compound 2b] was tested, and the “% Control Kochia Kochia scoparia” value (Kochia Kochia scoparia) was 88%, the “% Injury to grapes from vapor exposure” value [1] was 6% and the “% Control Broadleaf Dock Rumex obtusifolia” value [2] was 79%.
In the case of `CCC[N+](CCC)(CCC)CCC.O=C([O-])COc1nc(Cl)c(Cl)cc1Cl` [Compound 2c], the “% Control Kochia Kochia scoparia” value (Kochia Kochia scoparia) is reported as 95% and the “% Control Broadleaf Dock Rumex obtusifolia” value [2] is reported as 79%.
In the case of `COc1c(Cl)ccc(Cl)c1C(=O)[O-].C[N+](C)(C)C` [Compound 4a], the “% Injury to grapes from vapor exposure” value [1] is reported as 12%.
For `C[N+](C)(C)CCO.O=C([O-])COc1ccc(Cl)cc1Cl` [Compound 1e], the “% Control Kochia Kochia scoparia” value (Kochia Kochia scoparia) was 86% and the “% Control Broadleaf Dock Rumex obtusifolia” value [2] was 68%.
For `CCN(CC)CC.O=C(O)COc1nc(Cl)c(Cl)cc1Cl` [Triclopyr triethylamine (TEA), Triclopyr triethylamine, reference compound], the “% Control Kochia Kochia scoparia” value (Kochia Kochia scoparia) was 91%, the “% Injury to grapes from vapor exposure” value [1] was 57% and the “% Control Broadleaf Dock Rumex obtusifolia” value [2] was 81%.
